Target: SIRT2 (sirtuin-2) (Homo sapiens, UniProt Q8IXJ6)
Assay: in vitro enzymatic assay
Assay type: biochemical

Sequence of SIRT2 (sirtuin-2) (Q8IXJ6 2-389): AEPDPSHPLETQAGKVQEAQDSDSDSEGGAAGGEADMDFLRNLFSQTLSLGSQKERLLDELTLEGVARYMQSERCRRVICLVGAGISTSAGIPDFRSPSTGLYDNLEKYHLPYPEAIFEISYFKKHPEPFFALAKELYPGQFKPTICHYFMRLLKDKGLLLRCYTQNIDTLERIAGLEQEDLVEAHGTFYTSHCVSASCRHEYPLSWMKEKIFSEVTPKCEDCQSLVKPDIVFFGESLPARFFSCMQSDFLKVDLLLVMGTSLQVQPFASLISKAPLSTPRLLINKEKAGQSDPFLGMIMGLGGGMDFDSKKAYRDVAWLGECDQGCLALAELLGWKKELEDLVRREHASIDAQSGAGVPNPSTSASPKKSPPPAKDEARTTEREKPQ

**Q.** For `COC(=O)[C@H](CCC(=O)Nc1cccc2c1ccn2Cc1cccc(C(N)=O)c1)NC(=O)OCc1ccccc1` [compound 6, (S)-Methyl 2-(((benzyloxy)carbonyl)amino)-5-((1-(3-carbamo-ylbenzyl)-1H-indol-4-yl)amino)-5-oxopentanoate], which IC50 is on record?
**A.** 33 µM

From paper PMC5417072 (Anticancer research, 2016)
